In US10988459B2 (priority 2015, dated 2021):

target: human RIP1 kinase domain (2-375) (Homo sapiens (Human), UniProt Q13546); assay: biochemical; type: biochemical; conditions: Table 1; apparent Ki (Morrison tight-binding fit); 50 nM RIP1 kinase domain, 50 uM ATP, 2 hours incubation; read-out: RIP1 Ki
Procedure: Example 794: RIP1 Kinase Inhibition Assays (Biochemical Assay)
The compounds of the present invention were tested for their capacity to inhibit RIP1K activity as described below.
The ability of the receptor interacting protein kinase (RIPK1) to catalyze the hydrolysis of adenosine-5′-triphosphate (ATP) is monitored using the Transcreener ADP (adenosine-5′-diphosphate) assay (BellBrook Labs). Purified human RIP1 kinase domain (2-375) (50 nM) derived from a baculovirus-infected insect cell expression system is incubated with test compounds for 2 hours in 50 mM Hepes buffer (pH 7.5) containing 30 mM MgCl2, 1 mM dithiothreitol, 50 uM ATP, 0.002% Brij-35, and 0.5% dimethyl sulfoxide (DMSO). […] The tracer bound to the antibody is displaced by the ADP generated during the RIP1K reaction, which causes a decrease in fluorescence polarization that is measured by laser excitation at 633 nm with a FP microplate reader M1000. Fractional activity was plotted against test article concentration. Using Genedata Screener software (Genedata; Basel, Switzerland), the data were fit to the tight-binding apparent inhibition constant (Ki^app) Morrison equation [Williams, J. W. and Morrison, J. F. (1979) The kinetics of reversible tight-binding inhibition. Methods Enzymol 63: 437-67]. The following equation was used to calculate fractional activity and Ki^app:
[formula] where [E]T and [I]T are the total concentrations of active enzyme and test article, respectively.
“Method” in the first column of each table refers to the synthetic method(s) used to prepare each compound as shown in the Examples above. In certain examples, chiral column retention times (min) are provided for certain stereoisomers.

Chain of human RIP1 kinase domain (2-375) (Q13546 2-375): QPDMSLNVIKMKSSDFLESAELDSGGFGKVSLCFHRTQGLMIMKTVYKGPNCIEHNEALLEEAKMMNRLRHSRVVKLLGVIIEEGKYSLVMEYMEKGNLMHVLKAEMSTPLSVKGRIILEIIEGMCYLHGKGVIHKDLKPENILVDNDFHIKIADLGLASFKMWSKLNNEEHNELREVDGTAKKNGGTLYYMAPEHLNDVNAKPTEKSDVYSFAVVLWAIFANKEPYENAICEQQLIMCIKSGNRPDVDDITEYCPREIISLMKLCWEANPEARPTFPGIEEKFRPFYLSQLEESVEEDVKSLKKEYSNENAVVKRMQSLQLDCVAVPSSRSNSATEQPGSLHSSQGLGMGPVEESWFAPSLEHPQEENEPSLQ

Row | SMILES | Ki
1 | CN1C(=O)[C@@H](NC(=O)c2ncn3c2CC(C(F)(F)F)CC3)COc2ccccc21 (stereo partly drawn) [Example 38, N-[(3S)-5-methyl-4-oxo-2,3-dihydro-1,5-benzoxazepin-3-yl]-7-(trifluoromethyl)-5,6,7,8-tetrahydroimidazo[1,5-a]pyridine-1-carboxamide] | 87.4 nM
2 | CN1C(=O)[C@@H](NC(=O)c2n[nH]c3c2CCC3)COc2ccccc21 [Example 48, (S)-N-(5-methyl-4-oxo-2,3,4,5-tetrahydrobenzo[b][1,4]oxazepin-3-yl)-1,4,5,6-tetrahydrocyclopenta[c]pyra7.ole-3-carboxamide] | 8600 nM
3 | C[C@@H]1CCc2noc(C(=O)N[C@H]3COc4ccccc4N(C)C3=O)c2C1 [Example 71, (R)-5-methyl-N-((S)-5-methyl-4-oxo-2,3,4,5-tetrahydrobenzo[b][1,4]oxazepin-3-yl)-4,5,6,7-tetrahydrobenzo[c]isoxazole-3-carboxamide] | 19.2 nM
4 | CN1C(=O)C(NC(=O)c2nnc(Cc3ccccc3)[nH]2)CCn2nc(C(F)(F)F)cc21 (stereo not drawn) [Example 30, 5-benzyl-N-[4-methyl-5-oxo-2-(trifluoromethyl)-7,8-dihydro-6H-pyrazolo[1,5-a][1,3]diazepin-6-yl]-4H-1,2,4-triazole-3-carboxamide] | 208 nM

same assay, conditions: Table 5; apparent Ki (Morrison tight-binding fit); 50 nM RIP1 kinase domain, 50 uM ATP, 2 hours incubation; read-out: Ki

Row | Ki | SMILES
5 | 182 nM | CN1C(=O)[C@@H](NC(=O)c2ncn(Cc3ccccc3F)n2)CCn2nc(CCN3CC4CC3CO4)cc21 (stereo partly drawn) [Example 762]
6 | 73 nM | CN1C(=O)[C@@H](NC(=O)c2cc3c(cn2)cnn3CCC(F)F)COc2ccccc21 [Example 711, 1-(3,3-difluoropropyl)-N-[(3S)-5-methyl-4-oxo-2,3-dihydro-1,5-benzoxazepin-3-yl]pyrazolo[4,3-c]pyridine-6-carboxamide]

same assay, conditions: human RIP1 kinase domain (2-375), 50 uM ATP, 2 hours incubation, Transcreener ADP assay; read-out: RIP1 Ki

Row | Ki | SMILES
7 | 92.5 nM | CN1C(=O)C(NC(=O)c2ncn(Cc3ccccc3)n2)CCCn2nccc21 (stereo not drawn) [Example 94, 1-benzyl-N-(4-methyl-5-oxo-4,5,6,7,8,9-hexahydropyrazolo[1,5-a][1,3]diazocin-6-yl)-1H-1,2,4-triazole-3-carboxamide]
8 | 46.2 nM | CN1C(=O)[C@@H](NC(=O)c2ncn(Cc3ccccc3)n2)CCn2nc([C@@H]3CC3(F)F)cc21 [Example 147, 1-benzyl-N-((S)-2-((S)-2,2-difluorocyclopropyl)-4-methyl-5-oxo-5,6,7,8-tetrahydro-4H-pyrazolo[1,5-a][1,3]diazepin-6-yl)-1H-1,2,4-triazole-3-carboxamide]
9 | 912 nM | CC(C)n1ncc2c1OC[C@H](NC(=O)c1ncn(Cc3ccccc3)n1)C(=O)N2 [Example 203, (S)-1-benzyl-N-(1-isopropyl-5-oxo-4,5,6,7-tetrahydro-1H-pyrazolo[3,4-b][1,4]oxazepin-6-yl)-1H-1,2,4-triazole-3-carboxamide]

same assay, conditions: human RIP1 kinase domain (2-375), Transcreener ADP assay, 50 uM ATP, 2 hours incubation; read-out: RIP1 Ki

Row | Ki | SMILES
10 | 17.8 nM | CN1C(=O)[C@H](NC(=O)c2ncn(Cc3cccc(F)c3F)n2)CCn2nc([C@H]3CC3(F)F)cc21 [Example 312, 1-(2,3-difluorobenzyl)-N—((R)-2-((R)-2,2-difluorocyclopropyl)-4-methyl-5-oxo-5,6,7,8-tetrahydro-4H-pyrazolo[1,5-a][1,3]diazepin-6-yl)-1H-1,2,4-triazole-3-carboxamide]
11 | 1400 nM | CN1C(=O)C(NC(=O)c2cn(Cc3ccccc3)nn2)CCn2nc(C3CCOCC3)cc21 (stereo not drawn) [Example 237, 1-benzyl-N-(4-methyl-5-oxo-2-(tetrahydro-2H-pyran-4-yl)-5,6,7,8-tetrahydro-4H-pyrazolo[1,5-a][1,3]diazepin-6-yl)-1H-1,2,3-triazole-4-carboxamide]

same assay, conditions: tight-binding apparent inhibition constant; human RIP1 kinase domain (2-375) 50 nM, 50 uM ATP, 2 hours; read-out: Ki

Row | Ki | SMILES
12 | 40 nM | Cc1ncc2n1CC[C@@H](NC(=O)c1ncn(Cc3c(F)cccc3F)n1)C(=O)N2C [Example 578, 1-[(2,6-difluorophenyl)methyl]-N-[(3R)-1,7-dimethyl-2-oxo-4,5-dihydro-3H-imidazo[1,5-a][1,3]diazepin-3-yl]-1,2,4-triazole-3-carboxamide]
13 | 110 nM | CN1C(=O)[C@@H](NC(=O)c2ncn(Cc3ncccc3F)n2)CCn2nccc21 [Example 653, 1-[(3-fluoro-2-pyridyl)methyl]-N-(6S)-4-methyl-5-oxo-7,8-dihydro-6H-pyrazolo[1,5-a][1,3]diazepin-6-yl-1,2,4-triazole-3-carboxamide]
14 | 46 nM | CN1C(=O)[C@@H](NC(=O)c2ncn(Cc3ccc(F)cc3)n2)CCn2nc(C(F)(F)F)cc21 [Example 525]
15 | 130 nM | Cc1cc2n(n1)CC[C@H](NC(=O)c1ncn(CC3(C)CCCC3)n1)C(=O)N2C [Example 495, 1-[(1-methylcyclopentyl)methyl]-N-(6S)-2,4-dimethyl-5-oxo-7,8-dihydro-6H-pyrazolo[1,5-a][1,3]diazepin-6-yl-1,2,4-triazole-3-carboxamide]
16 | 17.3 nM | CC(=O)c1cc2n(n1)CC[C@H](NC(=O)c1ncn(Cc3ccccc3)n1)C(=O)N2C [Example 366, (S)—N-(2-acetyl-4-methyl-5-oxo-5,6,7,8-tetrahydro-4H-pyrazolo[1,5-a][1,3]diazepin-6-yl)-1-benzyl-1H-1,2,4-triazole-3-carboxamide]
17 | 220 nM | Cc1cnc2n1CCC(NC(=O)c1ncn(Cc3ccccc3)n1)C(=O)N2C (stereo not drawn) [Example 546, 1-benzyl-N-(3,9-dimethyl-8-oxo-6,7-dihydro-5H-imidazo[1,2-a][1,3]diazepin-7-yl)-1,2,4-triazole-3-carboxamide]
18 | 130 nM | Cc1nc(C)n2c1N(C)C(=O)[C@H](NC(=O)c1ncn(Cc3cc(F)ccc3F)n1)CC2 [Example 598, 1-[(2,5-difluorophenyl)methyl]-N-(3R)-1,7,9-trimethyl-2-oxo-4,5-dihydro-3H-imidazo[1,5-a][1,3]diazepin-3-yl-1,2,4-triazole-3-carboxamide]

Further lines, the compound ahead of its results:

Row | SMILES | Ki
19 | CN1C(=O)[C@@H](NC(=O)c2nc3n(n2)[C@@H](C(F)(F)F)CCC3)COc2ccccc21 (single isomer, unassigned) [Example 425] | 471 nM
20 | CCC[C@@]1(C)OCc2cnc(C(=O)N[C@H]3COc4ccccc4N(C)C3=O)nc21 (racemic) [Example 684, rac-(7R)-7-methyl-7-propyl-N-[rao-(3S)-5-methyl-4-oxo-2,3-dihydro-1,5-benzoxazepin-3-yl]-5H-furo[3,4-d]pyrimidine-2-carboxamide] | 163 nM
21 | CC(C)c1cccc2nc(C(=O)N[C@H]3COc4ccccc4N(C)C3=O)nn12 [Example 406, (S)-5-isopropyl-N-(5-methyl-4-oxo-2,3,4,5-tetrahydrobenzo[b][1,4]oxazepin-3-yl)-[1,2,4]triazolo[1,5-a]pyridine-2-carboxamide] | 4.72 nM
22 | CCC(C)(O)c1ccnc(C(=O)N[C@H]2COc3ccccc3N(C)C2=O)c1 (stereo partly drawn) [Example 488, 4-(1-hydroxy-1-methyl-propyl)-N-[(3S)-5-methyl-4-oxo-2,3-dihydro-1,5-benzoxazepin-3-yl]pyridine-2-carboxamide] | 1800 nM
23 | CCC[C@@H]1CCCc2nc(C(=O)N[C@H]3COc4cc(F)cc(F)c4NC3=O)nn21 (single isomer, unassigned) [Example 445] | 3.47 nM
24 | Cc1cc(F)c2c(c1)OC[C@H](NC(=O)c1nc3cccc(C(F)(F)F)n3n1)C(=O)N2 [Example 419, (S)—N-(6-fluoro-8-methyl-4-oxo-2,3,4,5-tetrahydrobenzo[b][1,4]oxazepin-3-yl)-5-(trifluoromethyl)-[1,2,4]triazolo[1,5-a]pyridine-2-carboxamide] | 9.4 nM
